Earlier results as cited in patent US7994218B2, “Simple pantoic acid ester neopentyl sulfonyl ester cyclization release prodrugs of acamprosate, compositions thereof, and methods of use” (XenoPort, Inc., priority 2007, dated 2011).

Key:
[1] = acamprosate doses about 1-2 gm per day
cocaine conditioned mice = settings: 100 mg/kg acamprosate for 3 days

## CC(=O)NCCCS(=O)(=O)O [acamprosate, 3-(Acetylamino)propylsulfonic acid]
[1]
  time at which steady-state plasma concentration occurs post-dose: 3 to 8 h
Cocaine conditioned mice
  effect on relapse-like behavior: attenuated relapse-like behavior
